Source: PMC11189555, “Aryl amino acetamides prevent Plasmodium falciparum ring development via targeting the lipid-transfer protein PfSTART1” (Nature Communications, 2024)
Where two headings read alike, the source gives them in different places.

Key:
[1] = tested on: PopE-F10 M-833 resistant clone (PfSTART1 N330K); assay: Growth inhibition assay (72 h, LDH activity); type: cell-based, Plasmodium falciparum; parameters: sample/DMSO: scale not given here
Method in brief: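 Synchronised ring-stage 3D7-derived clones (0.3-0.6% parasitemia, 2% haematocrit) grown 72 h in compound serial dilutions, some with 0, 0.25 or 2.5 mM glucosamine. Growth read as LDH activity after freeze-thaw (Malstat/NBT, A650), normalised to DMSO and uninfected RBC; EC50 from variable-slope log(inhibitor) fit.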

[2] = tested on: 3D7 P. falciparum parasites; assay: Growth inhibition assay (72 h, LDH activity); type: cell-based, Plasmodium falciparum; conditions: for EC50: Plasmodium falciparum
Method in brief: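 Synchronised ring-stage P. falciparum (0.3-0.6% parasitemia, 2% haematocrit) grown 72 h in serial compound dilutions, sometimes with 0, 0.25 or 2.5 mM glucosamine. Growth read as LDH activity (Malstat/NBT, A650) after freeze-thaw, normalised to DMSO and uninfected RBC. EC50 by nonlinear regression.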

Which EC50 ([1]; Plasmodium falciparum, 72 h, Supplementary Table 1, PopE-F10 (N330K)) does the source give for `CN(C(=O)C(C)(C)Nc1ccc(Cl)c(S(=O)(=O)N2CCOCC2)c1)c1ccc(F)c(Cl)c1` [compound 4] here?
Its EC50 is 13.8 µM.

What about the “resistance of the line compared with 3D7” value ([1]; PopE-F10 (N330K), Fig 4B) of the same compound?
The value was “No change in EC50”.

And the sample/DMSO ([1]; PopE-F10, 0.00152416 uM, biological replicate 3)?
The sample/DMSO was -10.997.

And the sample/DMSO ([1]; PopE-F10, 0.00304832 uM, biological replicate 1)?
The sample/DMSO was -14.4828.

And the sample/DMSO ([1]; PopE-F10, 0.00457247 uM, biological replicate 3)?
Its sample/DMSO is -14.249.

What about the sample/DMSO ([1]; PopE-F10, 0.00914495 uM, biological replicate 1) of the same compound?
The sample/DMSO was -25.5172.

And the sample/DMSO ([1]; PopE-F10, 0.0137174 uM, biological replicate 3)?
The sample/DMSO was -22.0582.

What about the sample/DMSO ([1]; PopE-F10, 0.0274348 uM, biological replicate 1) of the same compound?
The sample/DMSO was -44.0394.

And the sample/DMSO ([1]; PopE-F10, 0.0411523 uM, biological replicate 3)?
Its sample/DMSO is -25.9307.

And the sample/DMSO ([1]; PopE-F10, 0.078125 uM, biological replicate 2)?
The sample/DMSO was -21.3563.

What about the sample/DMSO ([1]; PopE-F10, 0.0823045 uM, biological replicate 1) of the same compound?
Its sample/DMSO is -49.1626.

And the sample/DMSO ([1]; PopE-F10, 0.123457 uM, biological replicate 3)?
Its sample/DMSO is -32.7771.

And the sample/DMSO ([1]; PopE-F10, 0.15625 uM, biological replicate 2)?
Its sample/DMSO is -19.0708.

What about the sample/DMSO ([1]; PopE-F10, 0.246914 uM, biological replicate 1) of the same compound?
The sample/DMSO was -58.8177.

And the sample/DMSO ([1]; PopE-F10, 0.3125 uM, biological replicate 2)?
Its sample/DMSO is -21.7123.

And the sample/DMSO ([1]; PopE-F10, 0.37037 uM, biological replicate 3)?
The sample/DMSO was -39.4309.

And the sample/DMSO ([1]; PopE-F10, 0.625 uM, biological replicate 2)?
The sample/DMSO was -9.966.

What about the sample/DMSO ([1]; PopE-F10, 0.740741 uM, biological replicate 1) of the same compound?
The sample/DMSO was -40.7882.

And the sample/DMSO ([1]; PopE-F10, 1.11111 uM, biological replicate 3)?
The sample/DMSO was -43.6671.

What about the sample/DMSO ([1]; PopE-F10, 1.25 uM, biological replicate 2) of the same compound?
Its sample/DMSO is -1.293.

What about the sample/DMSO ([1]; PopE-F10, 2.22222 uM, biological replicate 1) of the same compound?
The sample/DMSO was -40.4926.

And the sample/DMSO ([1]; PopE-F10, 2.5 uM, biological replicate 2)?
Its sample/DMSO is 7.269.

And the sample/DMSO ([1]; PopE-F10, 3.33333 uM, biological replicate 3)?
The sample/DMSO was -37.5053.

What about the sample/DMSO ([1]; PopE-F10, 5 uM, biological replicate 2) of the same compound?
Its sample/DMSO is 28.3814.

What about the sample/DMSO ([1]; PopE-F10, 6.66667 uM, biological replicate 1) of the same compound?
Its sample/DMSO is -11.4286.

And the sample/DMSO ([1]; PopE-F10, 10 uM, biological replicate 2)?
The sample/DMSO was 46.5155.

And the sample/DMSO ([1]; PopE-F10, 10 uM, biological replicate 3)?
The sample/DMSO was 5.884.

And the sample/DMSO ([1]; PopE-F10, 20 uM, biological replicate 1)?
The sample/DMSO was 42.9557.

What about the sample/DMSO ([1]; PopE-F10, 20 uM, biological replicate 2) of the same compound?
The sample/DMSO was 83.0461.

And the “Fold change compared to 3D7” value ([1]; Supplementary Table 1, EC50 on PopE-F10 vs 3D7)?
Its value is 1.4 fold.

And the “Growth inhibition % (LDH, relative to DMSO)” value ([2]; 3D7, 0.00152416 uM, biological replicate 3 (2023-02-07))?
Its value is -17.5745.

And the “Growth inhibition % (LDH, relative to DMSO)” value ([2]; 3D7, 0.00304832 uM, biological replicate 1 (2021-10-25))?
The value was -18.3864.

And the “Growth inhibition % (LDH, relative to DMSO)” value ([2]; 3D7, 0.00457247 uM, biological replicate 3 (2023-02-07))?
Its value is -17.9271.

What about the “Growth inhibition % (LDH, relative to DMSO)” value ([2]; 3D7, 0.00914495 uM, biological replicate 1 (2021-10-25)) of the same compound?
The value was -26.0151.

And the “Growth inhibition % (LDH, relative to DMSO)” value ([2]; 3D7, 0.0137174 uM, biological replicate 3 (2023-02-07))?
The value was -25.0392.

And the “Growth inhibition % (LDH, relative to DMSO)” value ([2]; 3D7, 0.0274348 uM, biological replicate 1 (2021-10-25))?
The value was -36.8606.

What about the “Growth inhibition % (LDH, relative to DMSO)” value ([2]; 3D7, 0.0411523 uM, biological replicate 3 (2023-02-07)) of the same compound?
The value was -21.1207.

What about the “Growth inhibition % (LDH, relative to DMSO)” value ([2]; 3D7, 0.078125 uM, biological replicate 2 (2023-02-07)) of the same compound?
The value was -4.3247.

What about the “Growth inhibition % (LDH, relative to DMSO)” value ([2]; 3D7, 0.0823045 uM, biological replicate 1 (2021-10-25)) of the same compound?
Its value is -42.8019.

And the “Growth inhibition % (LDH, relative to DMSO)” value ([2]; 3D7, 0.123457 uM, biological replicate 3 (2023-02-07))?
Its value is -34.2281.

What about the “Growth inhibition % (LDH, relative to DMSO)” value ([2]; 3D7, 0.15625 uM, biological replicate 2 (2023-02-07)) of the same compound?
Its value is -4.463.

What about the “Growth inhibition % (LDH, relative to DMSO)” value ([2]; 3D7, 0.246914 uM, biological replicate 1 (2021-10-25)) of the same compound?
Its value is -45.3858.

What about the “Growth inhibition % (LDH, relative to DMSO)” value ([2]; 3D7, 0.3125 uM, biological replicate 2 (2023-02-07)) of the same compound?
The value was -3.423.

What about the “Growth inhibition % (LDH, relative to DMSO)” value ([2]; 3D7, 0.37037 uM, biological replicate 3 (2023-02-07)) of the same compound?
Its value is -26.6654.

And the “Growth inhibition % (LDH, relative to DMSO)” value ([2]; 3D7, 0.625 uM, biological replicate 2 (2023-02-07))?
The value was -4.556.

And the “Growth inhibition % (LDH, relative to DMSO)” value ([2]; 3D7, 0.740741 uM, biological replicate 1 (2021-10-25))?
The value was -43.9445.

And the “Growth inhibition % (LDH, relative to DMSO)” value ([2]; 3D7, 1.11111 uM, biological replicate 3 (2023-02-07))?
The value was -37.6176.

What about the “Growth inhibition % (LDH, relative to DMSO)” value ([2]; 3D7, 1.25 uM, biological replicate 2 (2023-02-07)) of the same compound?
The value was 10.8002.

And the “Growth inhibition % (LDH, relative to DMSO)” value ([2]; 3D7, 2.22222 uM, biological replicate 1 (2021-10-25))?
The value was -10.0721.

What about the “Growth inhibition % (LDH, relative to DMSO)” value ([2]; 3D7, 2.5 uM, biological replicate 2 (2023-02-07)) of the same compound?
The value was 18.1545.

What about the “Growth inhibition % (LDH, relative to DMSO)” value ([2]; 3D7, 3.33333 uM, biological replicate 3 (2023-02-07)) of the same compound?
The value was -31.3871.

What about the “Growth inhibition % (LDH, relative to DMSO)” value ([2]; 3D7, 5 uM, biological replicate 2 (2023-02-07)) of the same compound?
The value was 37.6735.

And the “Growth inhibition % (LDH, relative to DMSO)” value ([2]; 3D7, 6.66667 uM, biological replicate 1 (2021-10-25))?
Its value is 35.3489.

What about the “Growth inhibition % (LDH, relative to DMSO)” value ([2]; 3D7, 10 uM, biological replicate 2 (2023-02-07)) of the same compound?
Its value is 60.2451.

What about the “Growth inhibition % (LDH, relative to DMSO)” value ([2]; 3D7, 10 uM, biological replicate 3 (2023-02-07)) of the same compound?
Its value is 26.4107.

And the “Growth inhibition % (LDH, relative to DMSO)” value ([2]; 3D7, 20 uM, biological replicate 1 (2021-10-25))?
Its value is 75.5669.

And the “Growth inhibition % (LDH, relative to DMSO)” value ([2]; 3D7, 20 uM, biological replicate 2 (2023-02-07))?
The value was 87.1878.

What about the EC50 ([2]; 3D7, 72 h, Supplementary Table 1, 3D7, 72 h, read-out: EC50) of the same compound?
Its EC50 is 10 µM.

And the EC50 ([2]; 3D7, Fig 4A, 3D7 parasites, read-out: Pf 3D7 EC50 (SD))?
The EC50 was greater than 10 µM.
